From PubChem BioAssay AID1963450 (Molecular Pharmacology Branch, DTP, NCI, 2024)

System: 556581-035-R-J1-PDC complex spheroid growth
Assay: Anticancer human tumor 556581-035-R-J1-PDC patient-derived ovarian carcinoma cell line growth inhibition [Asc]
Conditions: for IC50: curve of first compound; for viability, T/C: stronger effect = lower value; active = viability on the fitted dose curve at most 10% of control; inactive = the rest
Outline: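 Tumor cells were grown as multicellular spheroids with stromal HUVEC and mesenchymal stem cells and treated singly or in combination. Concentrations fell in half-log steps from the clinical Cmax, or from 10 microM where none was known.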
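Also: spheroids exposed to agents for 7 days before viability read.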

C=C(F)C(=O)N1CCN(c2nc(OCC3CCCN3C)nc3c2CCN(c2cccc4cccc(Cl)c24)C3)CC1CC#N (stereo not given) + Cc1c(S(C)(=O)=O)c(-c2cc(F)cc(N3CCN(c4ccc(NS(=O)(=O)c5ccc(NC(CCN6CCC(C(=O)OCCCP(=O)(O)O)CC6)CSc6ccccc6)c(S(=O)(=O)C(F)(F)F)c5)cc4)CC3)c2)c(-c2ccc(Cl)cc2)n1C(C)C
inactive: viability, T/C (second compound 0.1 µM, first compound 0.0316 µM) 80.6% | viability, T/C (second compound 0.1 µM, first compound 0.1 µM) 87.7% | viability, T/C (second compound 0.1 µM, first compound 0.316 µM) 79.1% | viability, T/C (second compound 0.1 µM, first compound 1 µM) 76.9% | viability, T/C (second compound 0.1 µM, first compound 3.16 µM) 35.4% | viability, T/C (second compound 0.1 µM, first compound 10 µM) 30.3% | viability, T/C (second compound 0.316 µM, first compound 0.0316 µM) 69.3% | viability, T/C (second compound 0.316 µM, first compound 0.1 µM) 86.7% | viability, T/C (second compound 0.316 µM, first compound 0.316 µM) 87.8% | viability, T/C (second compound 0.316 µM, first compound 1 µM) 68.6% | viability, T/C (second compound 0.316 µM, first compound 3.16 µM) 18.2% | viability, T/C (second compound 1 µM, first compound 0.0316 µM) 73.7% | viability, T/C (second compound 1 µM, first compound 0.1 µM) 71.8% | viability, T/C (second compound 1 µM, first compound 0.316 µM) 64.9% | viability, T/C (second compound 1 µM, first compound 1 µM) 56.8% | viability, T/C (second compound 1 µM, first compound 3.16 µM) 23.5% | viability, T/C (second compound 1 µM, first compound 10 µM) 25.7% | viability, T/C (second compound 3.16 µM, first compound 0.0316 µM) 63.1% | viability, T/C (second compound 3.16 µM, first compound 0.1 µM) 61.5% | viability, T/C (second compound 3.16 µM, first compound 0.316 µM) 67.7% | viability, T/C (second compound 3.16 µM, first compound 1 µM) 50.3% | viability, T/C (second compound 3.16 µM, first compound 3.16 µM) 22.1% | viability, T/C (second compound 3.16 µM, first compound 10 µM) 27% | viability, T/C (second compound 10 µM, first compound 0.0316 µM) 59.6% | viability, T/C (second compound 10 µM, first compound 0.1 µM) 54.5% | viability, T/C (second compound 10 µM, first compound 0.316 µM) 57.8% | viability, T/C (second compound 10 µM, first compound 1 µM) 50.4%
active: viability, T/C (second compound 0.316 µM, first compound 10 µM) 0.26% | viability, T/C (second compound 10 µM, first compound 3.16 µM) 8.45% | viability, T/C (second compound 10 µM, first compound 10 µM) 0.49%
1550 nM: IC50 (second compound 0.316 µM)
1010 nM: IC50 (second compound 3.16 µM) | IC50 (second compound 10 µM)
2110 nM: IC50 (second compound 0.1 µM)
1270 nM: IC50 (second compound 1 µM)

NC(=O)C(=Cn1cnc(-c2cc(C(F)(F)F)cc(C(F)(F)F)c2)n1)c1cncnc1 + CNC(C)C(=O)NC1CN(S(=O)(=O)c2cccc(S(=O)(=O)N3CCC4CCC(C(=O)NC(c5ccccc5)c5ccccc5)N4C(=O)C(NC(=O)C(C)NC)C3)c2)CCC2CCC(C(=O)NC(c3ccccc3)c3ccccc3)N2C1=O
> 300 nM: IC50 (second compound 0.01 µM) | IC50 (second compound 0.0316 µM) | IC50 (second compound 0.1 µM) | IC50 (second compound 0.316 µM) | IC50 (second compound 1 µM)
inactive: viability, T/C (second compound 0.01 µM, first compound 0.000949 µM) 93% | viability, T/C (second compound 0.01 µM, first compound 0.003 µM) 85.2% | viability, T/C (second compound 0.01 µM, first compound 0.00949 µM) 63.7% | viability, T/C (second compound 0.01 µM, first compound 0.03 µM) 66.8% | viability, T/C (second compound 0.01 µM, first compound 0.0949 µM) 90.1% | viability, T/C (second compound 0.01 µM, first compound 0.3 µM) 72.6% | viability, T/C (second compound 0.0316 µM, first compound 0.000949 µM) 105% | viability, T/C (second compound 0.0316 µM, first compound 0.003 µM) 86% | viability, T/C (second compound 0.0316 µM, first compound 0.00949 µM) 87.9% | viability, T/C (second compound 0.0316 µM, first compound 0.03 µM) 79.2% | viability, T/C (second compound 0.0316 µM, first compound 0.0949 µM) 75.7% | viability, T/C (second compound 0.0316 µM, first compound 0.3 µM) 82% | viability, T/C (second compound 0.1 µM, first compound 0.000949 µM) 70.7% | viability, T/C (second compound 0.1 µM, first compound 0.003 µM) 79.5% | viability, T/C (second compound 0.1 µM, first compound 0.00949 µM) 76.1% | viability, T/C (second compound 0.1 µM, first compound 0.03 µM) 50% | viability, T/C (second compound 0.1 µM, first compound 0.0949 µM) 64.1% | viability, T/C (second compound 0.1 µM, first compound 0.3 µM) 63.3% | viability, T/C (second compound 0.316 µM, first compound 0.000949 µM) 76.5% | viability, T/C (second compound 0.316 µM, first compound 0.003 µM) 75.8% | viability, T/C (second compound 0.316 µM, first compound 0.00949 µM) 71.7% | viability, T/C (second compound 0.316 µM, first compound 0.03 µM) 65.8% | viability, T/C (second compound 0.316 µM, first compound 0.0949 µM) 65.3% | viability, T/C (second compound 0.316 µM, first compound 0.3 µM) 62.2% | viability, T/C (second compound 1 µM, first compound 0.000949 µM) 76.9% | viability, T/C (second compound 1 µM, first compound 0.003 µM) 73% | viability, T/C (second compound 1 µM, first compound 0.00949 µM) 66.7% | viability, T/C (second compound 1 µM, first compound 0.03 µM) 63% | viability, T/C (second compound 1 µM, first compound 0.0949 µM) 59.7% | viability, T/C (second compound 1 µM, first compound 0.3 µM) 53.3%

CCN1CCN(Cc2ccc(Nc3ncc(F)c(-c4cc(F)c5nc(C)n(C(C)C)c5c4)n3)nc2)CC1 + CCN1C(C(=O)NC23CCC(C(=O)O)(CC2)CC3)C(c2cccc(Cl)c2F)C2(C(=O)Nc3cc(Cl)ccc32)C12CCCCC2
> 1000 nM: IC50 (second compound 0.03 µM) | IC50 (second compound 0.0949 µM) | IC50 (second compound 0.3 µM) | IC50 (second compound 0.949 µM) | IC50 (second compound 3 µM)
inactive: viability, T/C (second compound 0.03 µM, first compound 0.00316 µM) 91.6% | viability, T/C (second compound 0.03 µM, first compound 0.01 µM) 84.4% | viability, T/C (second compound 0.03 µM, first compound 0.0316 µM) 94% | viability, T/C (second compound 0.03 µM, first compound 0.1 µM) 81.8% | viability, T/C (second compound 0.03 µM, first compound 0.316 µM) 102% | viability, T/C (second compound 0.03 µM, first compound 1 µM) 88% | viability, T/C (second compound 0.0949 µM, first compound 0.00316 µM) 107% | viability, T/C (second compound 0.0949 µM, first compound 0.01 µM) 98% | viability, T/C (second compound 0.0949 µM, first compound 0.0316 µM) 95.2% | viability, T/C (second compound 0.0949 µM, first compound 0.1 µM) 106% | viability, T/C (second compound 0.0949 µM, first compound 0.316 µM) 98.2% | viability, T/C (second compound 0.0949 µM, first compound 1 µM) 87.2% | viability, T/C (second compound 0.3 µM, first compound 0.00316 µM) 102% | viability, T/C (second compound 0.3 µM, first compound 0.01 µM) 82.5% | viability, T/C (second compound 0.3 µM, first compound 0.0316 µM) 96.8% | viability, T/C (second compound 0.3 µM, first compound 0.1 µM) 99.7% | viability, T/C (second compound 0.3 µM, first compound 0.316 µM) 92.3% | viability, T/C (second compound 0.3 µM, first compound 1 µM) 88.4% | viability, T/C (second compound 0.949 µM, first compound 0.00316 µM) 84.9% | viability, T/C (second compound 0.949 µM, first compound 0.01 µM) 88.5% | viability, T/C (second compound 0.949 µM, first compound 0.0316 µM) 92.9% | viability, T/C (second compound 0.949 µM, first compound 0.1 µM) 92.9% | viability, T/C (second compound 0.949 µM, first compound 0.316 µM) 81.1% | viability, T/C (second compound 0.949 µM, first compound 1 µM) 91.6% | viability, T/C (second compound 3 µM, first compound 0.00316 µM) 81.7% | viability, T/C (second compound 3 µM, first compound 0.01 µM) 83.3% | viability, T/C (second compound 3 µM, first compound 0.0316 µM) 82.6% | viability, T/C (second compound 3 µM, first compound 0.1 µM) 83.5% | viability, T/C (second compound 3 µM, first compound 0.316 µM) 87.2% | viability, T/C (second compound 3 µM, first compound 1 µM) 86.2%
